Values belong to the compound of their own block, whether it stands above or below them.
Experiments:
[1] = system: antigen presentation by LNC to T cell hybridoma 1C5.1; test: Chloroquine treatment of irradiated LNC before T hybridoma activation; format: cell-based; conditions: C3H mice primed with 14 nmol/mouse HEL in CFA, 10^6 LNC/well; chloroquine 1-100 µM, hybridoma 1C5.1 (Fig. 3)
[2] = system: I-Ak molecules; conditions: cited from earlier work
[3] = system: T cell response; conditions: cited from earlier work
[4] = system: I-Ek molecules; conditions: cited from earlier work
[5] = system: I-Ed molecules; conditions: cited from earlier work
[6] = system: T cell hybridoma 3A9 (I-Ak/HEL 46-61); format: in vivo, C3H and DBA/2 mice; conditions: C3H (H-2k) mice, 7 nmol/mouse HEL-CFA, LNC day 8, no antigen added (Fig. 1)
[7] = system: T cell hybridoma 2G7.1 (I-Ek/HEL 1-18); format: cell-based, mouse; conditions: read-out: Responsiveness: amount of HEL or peptide inducing 50% of the maximal response; hybridoma 2G7.1, restriction Ek; LK-35.2 cells as APC; mean of three to four experiments
[8] = system: T cell hybridoma 1H11.3 (I-Ed/HEL 108-116); format: cell-based, mouse; conditions: read-out: Responsiveness: amount of HEL or peptide inducing 50% of the maximal response; hybridoma 1H11.3, restriction Ed; LK-35.2 cells as APC; mean of three to four experiments
[9] = system: T cell hybridoma 1C5.1 (I-Ak/HEL 46-61); format: cell-based, mouse; conditions: read-out: Responsiveness: amount of HEL or peptide inducing 50% of the maximal response; hybridoma 1C5.1, restriction Ak; LK-35.2 cells as APC; mean of three to four experiments
[10] = system: T cell hybridoma 2D4.1 (I-Ak/HEL 112-129); format: cell-based, mouse; conditions: read-out: Responsiveness: amount of HEL or peptide inducing 50% of the maximal response; hybridoma 2D4.1, restriction Ak; LK-35.2 cells as APC; mean of three to four experiments
[11] = system: T cell hybridoma 3A9 (I-Ak/HEL 46-61); format: cell-based, mouse; conditions: read-out: Responsiveness: amount of HEL or peptide inducing 50% of the maximal response; hybridoma 3A9, restriction Ak; LK-35.2 cells as APC; mean of three to four experiments
[12] = system: T cell hybridoma 1H11.3 (I-Ed/HEL 108-116); format: in vivo, C3H and DBA/2 mice; conditions: DBA/2 (H-2d) mice, 7 nmol/mouse HEL-CFA, LNC day 8, no antigen added (Fig. 1)
[13] = system: T cell hybridoma 1C5.1 (I-Ak/HEL 46-61); format: in vivo, C3H mice; conditions: LNC from HEL-primed mice (not shown)

Compound: CCN(CC)CCCC(C)Nc1ccnc2cc(Cl)ccc12 (centres unmarked) [chloroquine]
Effect on antigen presentation by LNC from HEL-primed mice [1]: failsto interfere

Compound: CNDGRTPGSRNLCN [HEL 64-77]
Binding to I-Ak [2]: does not bind

Compound: DRGDQSTDYGIFQINSR [ML 46-62]
Immunogenicity in mice [3]: nonimmunogenic | Binding to I-Ek molecules [4]: failsto bind | Binding to I-Ed molecules [5]: failsto bind | Binding to I-Ak molecules [2]: binds strongly

EC50 [7]: 300 nM | EC50 [8]: 500 nM | EC50 [9]: 300 nM | EC50 [10]: 300 nM | EC50 [11]: 20 nM
Compound: hen egg white lysozyme [HEL]
IL-2 production by 3A9 induced by LNC from primed mice [6]: induce | IL-2 production by 1H11.3 induced by LNC from primed mice [12]: induce | Time after immunization of maximal antigen-presenting activity in LNC [13]: 8 days

Reference: publication PMC2119205 (The Journal of Experimental Medicine, 1992)
